Reference: ChEMBL document CHEMBL1201862, “PubChem BioAssay data set” (2004)
Counter-ions that a name gives are not always drawn.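 Five compound concentrations were applied to cells in 96-well plates for 48 hours; endpoints were derived by simple linear interpolation of the resulting dose-response curve. GI50 is the concentration that inhibits growth by half.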 Calls of active or inactive are those of the source. Cut-off read from the data, not from the text of the source: active = GI50 up to about 1.1 µM and inactive = higher.

How the values were obtained:
Assay in all cases: DTP human tumour cell line panel, 48 h
HL-60 = system: HL-60
HCC 2998 = system: HCC 2998
OVCAR-5 = system: OVCAR-5
IGROV-1 = system: IGROV-1
HCT-15 = system: HCT-15
SK-OV-3 = system: SK-OV-3
786-0 = system: 786-0
OVCAR-4 = system: OVCAR-4
Malme-3M = system: Malme-3M
UACC-62 = system: UACC-62
MOLT-4 = system: MOLT-4
LOX IMVI = system: LOX IMVI
NCI/ADR-RES = system: NCI/ADR-RES
ACHN = system: ACHN
SF-539 = system: SF-539
RXF 393 = system: RXF 393
MCF7 = system: MCF7
SK-MEL-5 = system: SK-MEL-5
MDA-MB-231 = system: MDA-MB-231
M14 = system: M14

Structure (SMILES) | GI50 (HL-60) | GI50 (HCC 2998) | GI50 (OVCAR-5) | GI50 (IGROV-1) | GI50 (HCT-15) [µM] | GI50 (SK-OV-3) | GI50 (786-0) | GI50 (OVCAR-4) | GI50 (Malme-3M) | GI50 (UACC-62) | GI50 (MOLT-4) | GI50 (LOX IMVI) | GI50 (NCI/ADR-RES) | GI50 (ACHN) | GI50 (SF-539) | GI50 (RXF 393) | GI50 (MCF7) | GI50 (SK-MEL-5) | GI50 (MDA-MB-231) | GI50 (M14)
O=[N+]([O-])C(C(Cl)=C(Cl)Cl)=C(N1CCCCC1)N1CCCCC1 | 33.4 µM (inactive) | > 100 µM (inactive) | > 100 µM (inactive) | 69.5 µM (inactive) | > 100 | > 100 µM (inactive) | > 100 µM (inactive) | > 100 µM (inactive) | 39.5 µM (inactive) | > 100 µM (inactive) | 33.7 µM (inactive) | 55 µM (inactive) | > 100 µM (inactive) | > 100 µM (inactive) | > 100 µM (inactive) | 63.1 µM (inactive) | 90.4 µM (inactive) | > 100 µM (inactive) | > 100 µM (inactive) | > 100 µM (inactive)
CN(C)c1ccc(/C=C/C=C(/C#N)c2ccccc2)cc1 | 2.74 µM (inactive) | 30.3 µM (inactive) | > 62.7 µM (inactive) | 21.4 µM (inactive) | 6.87 | 34.8 µM (inactive) | 28.1 µM (inactive) | > 38.6 µM (inactive) | 14 µM (inactive) | 19.2 µM (inactive) | 11.8 µM (inactive) | 11.2 µM (inactive) | 6.92 µM (inactive) | 34.4 µM (inactive) | 16.4 µM (inactive) | 36.8 µM (inactive) | 17.7 µM (inactive) | 14.5 µM (inactive) | 37.8 µM (inactive) | 15.8 µM (inactive)
N#Cc1c(SCc2ccccc2)nc(-c2ccccc2)[nH]c1=S | 30.6 µM (inactive) | 19.3 µM (inactive) | 25.8 µM (inactive) | 29.9 µM (inactive) | 19.8 | 23.4 µM (inactive) | 22.3 µM (inactive) | 30.9 µM (inactive) | 37.2 µM (inactive) | 21.7 µM (inactive) | 29 µM (inactive) | 30 µM (inactive) | 23.5 µM (inactive) | 23 µM (inactive) | 25.2 µM (inactive) | 19.2 µM (inactive) | 26.1 µM (inactive) | 19.3 µM (inactive) | 37.4 µM (inactive) | 29.9 µM (inactive)
CN[C@@H]1[C@H](O)[C@H](NC)[C@H]2O[C@@]3(O)C(=O)C[C@@H](C)O[C@H]3O[C@@H]2[C@H]1O [SPECTINOMYCIN SULFATE] | > 100 µM (inactive) | > 100 µM (inactive) | > 100 µM (inactive) | > 100 µM (inactive) | > 100 | > 100 µM (inactive) | > 10 µM (inactive) | > 100 µM (inactive) | > 100 µM (inactive) | > 100 µM (inactive) | > 100 µM (inactive) | > 100 µM (inactive) | > 100 µM (inactive) | > 100 µM (inactive) | > 100 µM (inactive) | > 100 µM (inactive) | > 100 µM (inactive) | > 100 µM (inactive) | > 100 µM (inactive) | > 100 µM (inactive)
COc1cc(N(CCC#N)CCC#N)ccc1C(=N/NC(=O)c1cc(Br)ccc1O)/N=N/c1ccc(C)cc1 | 15.4 µM (inactive) | 19.7 µM (inactive) | 61.4 µM (inactive) | 4.32 µM (inactive) | 12.2 | 24.2 µM (inactive) | 32.1 µM (inactive) | 18.4 µM (inactive) | 29.3 µM (inactive) | 18.5 µM (inactive) | 14 µM (inactive) | 17.9 µM (inactive) | 27.1 µM (inactive) | 27 µM (inactive) | 29 µM (inactive) | 19.3 µM (inactive) | 17.4 µM (inactive) | 17.1 µM (inactive) | 15.5 µM (inactive) | 28.3 µM (inactive)
CCC[C@H](C)C[C@H](C)C[C@H](C)/C=C(\C)[C@@H](O)[C@@H](C)C(=O)CC | 17.9 µM (inactive) | 17 µM (inactive) | 19.9 µM (inactive) | 19.3 µM (inactive) | 21 | 36.2 µM (inactive) | 20.1 µM (inactive) | 19.2 µM (inactive) | 18.5 µM (inactive) | 17.1 µM (inactive) | 21.4 µM (inactive) | 20.4 µM (inactive) | 17 µM (inactive) | 21.9 µM (inactive) | 21 µM (inactive) | 20.7 µM (inactive) | 21.3 µM (inactive) | 18.9 µM (inactive) | 25.3 µM (inactive) | 19.8 µM (inactive)
CO[C@@H]1C[C@H]2N3CC[C@@]2(c2cc4c(cc2C3)OCO4)[C@H]2O[C@@H]12 | > 100 µM (inactive) | > 100 µM (inactive) | > 100 µM (inactive) | > 100 µM (inactive) | > 100 | > 100 µM (inactive) | > 100 µM (inactive) | > 100 µM (inactive) | > 100 µM (inactive) | > 100 µM (inactive) | > 100 µM (inactive) | > 100 µM (inactive) | > 100 µM (inactive) | > 100 µM (inactive) | 0.603 µM (active) | > 100 µM (inactive) | > 100 µM (inactive) | 0.157 µM (active) | > 100 µM (inactive) | > 100 µM (inactive)
